# Experiments:
# Experiment in all cases: relative viability (nuclei count vs DMSO), 5 days (fraction); higher = more cells survive
# HCC-78 = tested on: HCC-78
# Summary of the method: (§1)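 Cells from lung cancer lines were seeded into 1536-well plates and, one day later, dosed by pin tool. Treatments were either a single drug or a fixed dose of an anchor drug with five library-drug doses (not always all listed) in √10 steps. After 5 days, nuclei were stained in a one-step fixation (final 0.05% Triton X-100, 1% formaldehyde, 1 ug/ml Hoechst) and counted on 4× images, and relative viability is the treated-to-vehicle nuclei ratio, as the median of duplicate plates.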
# NCI-H460 = tested on: NCI-H460
# Summary of the method: as §1
# NCI-H2085 = tested on: NCI-H2085
# Summary of the method: as §1
# LU99A = tested on: LU99A
# Summary of the method: as §1
# NCI-H1755 = tested on: NCI-H1755
# Summary of the method: as §1
# NCI-H650 = tested on: NCI-H650
# Summary of the method: as §1
# HARA = tested on: HARA
# Summary of the method: as §1
# PC-3 [JPC-3] = tested on: PC-3 [JPC-3]
# Summary of the method: as §1
# NCI-H596 = tested on: NCI-H596
# Summary of the method: as §1
# HCC-366 = tested on: HCC-366
# Summary of the method: as §1
# NCI-H322M = tested on: NCI-H322M
# Summary of the method: as §1
# NCI-H2087 = tested on: NCI-H2087
# Summary of the method: as §1
# NCI-H1651 = tested on: NCI-H1651
# Summary of the method: as §1
# NCI-H358 = tested on: NCI-H358
# Summary of the method: as §1
# H3255 = tested on: H3255
# Summary of the method: as §1
# NCI-H1793 = tested on: NCI-H1793
# Summary of the method: as §1
# 201T = tested on: 201T
# Summary of the method: as §1
# NCI-H3122 = tested on: NCI-H3122
# Summary of the method: as §1
# SK-LU-1 = tested on: SK-LU-1
# Summary of the method: as §1
# COR-L23 = tested on: COR-L23
# Summary of the method: as §1
# NCI-H23 = tested on: NCI-H23
# Summary of the method: as §1
smiles,measurement,setting,value
CCNC(=O)c1noc(-c2cc(C(C)C)c(O)cc2O)c1-c1ccc(CN2CCOCC2)cc1 [Luminespib] + Cc1nc(NC(=O)N2CCC[C@H]2C(N)=O)sc1-c1ccnc(C(C)(C)C(F)(F)F)c1 [Alpelisib] (partner 2 µM),relative viability,HCC-78; first compound 0.002 µM,0.309
same,relative viability,HCC-78; first compound 0.06325 µM,0.585
same,relative viability,HCC-78; first compound 0.2 µM,0.216
same,relative viability,NCI-H460; first compound 0.002 µM,0.508
same,relative viability,NCI-H460; first compound 0.006325 µM,0.447
same,relative viability,NCI-H460; first compound 0.02 µM,0.0191
same,relative viability,NCI-H460; first compound 0.06325 µM,0.0086
same,relative viability,NCI-H460; first compound 0.2 µM,0.0122
same,relative viability,NCI-H2085; first compound 0.002 µM,0.967
same,relative viability,NCI-H2085; first compound 0.006325 µM,0.989
same,relative viability,NCI-H2085; first compound 0.02 µM,0.937
same,relative viability,NCI-H2085; first compound 0.06325 µM,0.542
same,relative viability,NCI-H2085; first compound 0.2 µM,0.397
same,relative viability,LU99A; first compound 0.002 µM,0.534
same,relative viability,LU99A; first compound 0.006325 µM,0.526
same,relative viability,LU99A; first compound 0.02 µM,0.311
same,relative viability,LU99A; first compound 0.06325 µM,0.11
same,relative viability,LU99A; first compound 0.2 µM,0.0992
same,relative viability,NCI-H1755; first compound 0.002 µM,0.972
same,relative viability,NCI-H1755; first compound 0.006325 µM,0.887
same,relative viability,NCI-H1755; first compound 0.02 µM,0.823
same,relative viability,NCI-H1755; first compound 0.06325 µM,0.905
same,relative viability,NCI-H1755; first compound 0.2 µM,0.561
same,relative viability,NCI-H650; first compound 0.002 µM,1.24
same,relative viability,NCI-H650; first compound 0.006325 µM,1.04
same,relative viability,NCI-H650; first compound 0.02 µM,0.994
same,relative viability,NCI-H650; first compound 0.06325 µM,0.193
same,relative viability,NCI-H650; first compound 0.2 µM,0.145
same,relative viability,HARA; first compound 0.002 µM,0.835
same,relative viability,HARA; first compound 0.006325 µM,0.676
same,relative viability,HARA; first compound 0.02 µM,0.85
same,relative viability,HARA; first compound 0.06325 µM,0.759
same,relative viability,HARA; first compound 0.2 µM,0.103
same,relative viability,PC-3 [JPC-3]; first compound 0.002 µM,1.09
same,relative viability,PC-3 [JPC-3]; first compound 0.006325 µM,0.908
same,relative viability,PC-3 [JPC-3]; first compound 0.02 µM,0.871
same,relative viability,PC-3 [JPC-3]; first compound 0.06325 µM,1.08
same,relative viability,PC-3 [JPC-3]; first compound 0.2 µM,0.957
same,relative viability,NCI-H596; first compound 0.002 µM,0.517
same,relative viability,NCI-H596; first compound 0.006325 µM,0.45
same,relative viability,NCI-H596; first compound 0.06325 µM,0.44
same,relative viability,NCI-H596; first compound 0.2 µM,0.464
same,relative viability,HCC-366; first compound 0.002 µM,0.442
same,relative viability,HCC-366; first compound 0.006325 µM,0.496
same,relative viability,HCC-366; first compound 0.02 µM,0.312
same,relative viability,HCC-366; first compound 0.06325 µM,0.0181
same,relative viability,HCC-366; first compound 0.2 µM,0.0182
same,relative viability,NCI-H322M; first compound 0.002 µM,0.774
same,relative viability,NCI-H322M; first compound 0.006325 µM,0.711
same,relative viability,NCI-H322M; first compound 0.02 µM,0.588
same,relative viability,NCI-H322M; first compound 0.06325 µM,0.751
same,relative viability,NCI-H322M; first compound 0.2 µM,0.807
same,relative viability,NCI-H2087; first compound 0.002 µM,1.2
same,relative viability,NCI-H2087; first compound 0.006325 µM,0.907
same,relative viability,NCI-H2087; first compound 0.02 µM,1.3
same,relative viability,NCI-H2087; first compound 0.06325 µM,0.193
same,relative viability,NCI-H2087; first compound 0.2 µM,0.184
same,relative viability,NCI-H1651; first compound 0.002 µM,0.899
same,relative viability,NCI-H1651; first compound 0.006325 µM,0.854
same,relative viability,NCI-H1651; first compound 0.02 µM,0.881
same,relative viability,NCI-H1651; first compound 0.06325 µM,0.42
same,relative viability,NCI-H1651; first compound 0.2 µM,0.262
same,relative viability,NCI-H358; first compound 0.002 µM,0.841
same,relative viability,NCI-H358; first compound 0.006325 µM,0.76
same,relative viability,NCI-H358; first compound 0.02 µM,0.635
same,relative viability,NCI-H358; first compound 0.06325 µM,0.117
same,relative viability,NCI-H358; first compound 0.2 µM,0.128
same,relative viability,H3255; first compound 0.002 µM,0.775
same,relative viability,H3255; first compound 0.006325 µM,0.636
same,relative viability,H3255; first compound 0.02 µM,0.508
same,relative viability,H3255; first compound 0.06325 µM,0.586
same,relative viability,H3255; first compound 0.2 µM,0.195
same,relative viability,NCI-H1793; first compound 0.002 µM,0.806
same,relative viability,NCI-H1793; first compound 0.006325 µM,0.536
same,relative viability,NCI-H1793; first compound 0.02 µM,0.319
same,relative viability,NCI-H1793; first compound 0.06325 µM,0.212
same,relative viability,NCI-H1793; first compound 0.2 µM,0.165
same,relative viability,201T; first compound 0.002 µM,0.965
same,relative viability,201T; first compound 0.006325 µM,1.01
same,relative viability,201T; first compound 0.02 µM,0.96
same,relative viability,201T; first compound 0.06325 µM,1.04
same,relative viability,201T; first compound 0.2 µM,1.03
same,relative viability,NCI-H3122; first compound 0.002 µM,0.756
same,relative viability,NCI-H3122; first compound 0.006325 µM,0.672
same,relative viability,NCI-H3122; first compound 0.02 µM,0.648
same,relative viability,NCI-H3122; first compound 0.06325 µM,0.179
same,relative viability,NCI-H3122; first compound 0.2 µM,0.149
same,relative viability,SK-LU-1; first compound 0.002 µM,1.33
same,relative viability,SK-LU-1; first compound 0.006325 µM,0.7
same,relative viability,SK-LU-1; first compound 0.02 µM,0.305
same,relative viability,SK-LU-1; first compound 0.06325 µM,0.18
same,relative viability,SK-LU-1; first compound 0.2 µM,0.161
same,relative viability,COR-L23; first compound 0.002 µM,0.825
same,relative viability,COR-L23; first compound 0.006325 µM,0.685
same,relative viability,COR-L23; first compound 0.02 µM,0.714
same,relative viability,COR-L23; first compound 0.06325 µM,0.0624
same,relative viability,COR-L23; first compound 0.2 µM,0.0515
same,relative viability,NCI-H23; first compound 0.002 µM,0.814
same,relative viability,NCI-H23; first compound 0.006325 µM,0.56
same,relative viability,NCI-H23; first compound 0.02 µM,0.504
same,relative viability,NCI-H23; first compound 0.06325 µM,0.141
same,relative viability,NCI-H23; first compound 0.2 µM,0.116

# Reference: the supplement of paper PMC10307832
